This passage reports IC50 and EC50 results from patent US9745305B2, “Modulators of methyl modifying enzymes, compositions and uses thereof” (Constellation Pharmaceuticals, Inc., priority 2013, dated 2017).

The structures appear in SMILES notation.

What is called IC50 is the point on the concentration scale where inhibition reaches its midpoint. What is called EC50 is the concentration that produces a half-maximal response.

Assay [1] concerns the target EZH2 (Homo sapiens, UniProt Q15910). Kind of assay: EZH2 Assay (3H SAM methyl transfer, rPRC2, FlashPlate). It is filed as biochemical. The conditions noted are these: rPRC2, biotinylated oligonucleosomes, 0.2 μM 3H SAM, 2 nM EZH2. As to the method: (§1) EZH2 Assay: Assays were carried out by mixing rPRC2 together with biotinylated oligonucleosome substrates in the presence of the radio-labeled enzyme co-factor, S-adenosyl-L-methionine (^3H SAM) (Perkin Elmer) and monitoring the enzymatically mediated transfer of tritiated methyl groups from ^3H SAM to histone lysine residues. The amount of resulting tritiated methyl histone product was measured by first capturing the biotinylated oligonucleosomes in streptavidin (SAV) coated FlashPlates (Perkin Elmer), followed by a wash step to remove unreacted ^3H SAM, and then counting on a TopCount NXT 384 well plate scintillation counter (Perkin Elmer). The final assay conditions for EZH2 were as follows: 50 mM Tris Buffer pH 8.5, 1 mM DTT, 69 μM Brij-35 detergent, 5.0 mM MgCl2, 0.1 mg/mL BSA, 0.2 μM ^3H SAM, 0.2 μM biotinylated oligonucleosomes, 3.6 μM H3K27me3 peptide and 2 nM EZH2.
(§2) Compound IC50 measurements were obtained as follows: Compounds were first dissolved in 100% DMSO as 10 mM stock solutions. Ten point dose response curves were generated by dispensing varying amounts of the 10 mM compound solution in 10 wells of the 384 well plate (Echo; Labcyte), pure DMSO was then used to backfill the wells to insure all wells have the same amount of DMSO. A 12.5 μL volume of the HMT enzyme, H3K27me3 peptide and oligonucleosome substrate in assay buffer was added to each well of the assay plate using a Multidrop Combi (ThermoFisher). Compounds were pre-incubated with the enzyme for 20 min, followed by initiation of the methyltransferase reaction by addition of 12.5 μL of ^3H SAM in assay buffer (final volume=25 μL). The final concentrations of compounds ranged from a top default concentration of 80 μM down to 0.16 μM in ten 2-fold dilution steps. Reactions were carried out for 60 minutes and quenched with 20 μL per well of 1.96 mM SAH, 50 mM Tris pH 8.5, 200 mM EDTA. Stopped reactions were transferred to SAV coated Flashplates (Perkin Elmer), incubated for 120 min, washed with a plate washer, and then read on the TopCount NXT (1.0 min/well) to measure the amount of methyl histone product formed during the reaction. The amount of methyl histone product was compared with the amount of product formed in the 0% and 100% inhibition control wells allowing the calculation of % Inhibition in the presence of the individual compounds at various concentrations. IC50's were computed using a 4 parameter fit non-linear curve fitting software package (XLFIT, part of the database package, ActivityBase (IDBS)) where the four parameters were IC50, Hill slope, pre-transitional baseline (0% INH), and post-transitional baseline (100% INH); with the latter two parameters being fixed to zero and 100%, respectively, by default.

In assay [2] the target is Y641N EZH2 (Homo sapiens, UniProt Q15910, Y641N). Kind of assay: Assay for Y641N EZH2 (as the EZH2 assay, H3K27Me2 oligonucleosomes as substrate). The conditions noted are these: Y641N EZH2 mutant, reconstituted H3K27Me2 oligonucleosomes as substrate. It is filed as biochemical. Here is the method:
as §1, §2
Assay for Y641N EZH2 was performed as above using reconstituted H3K27Me2 oligonucleosomes as substrate.

Assay [3] relates to H3K27me3 mark in Hela cells expressing wild type EZH2. Kind of assay: H3K27me3 MSD Hela Assay. It is filed as cell-based. The conditions noted are these: read-out: H3K27me3_MSD_HeLa (EC50). Here is the method:
H3K27me3 MSD Hela Assay. Trypsinized HeLa cells were counted and diluted in 10% DMEM (Life Technologies, Cat. #10569) to 5000 cells/75 μL. Seventy-five μL of cells were place in each well of a 96-well flat-bottomed plate and incubated at 37° C. for 4 hours. Twenty-five μL of test compound (at various concentrations) was added to the cells and incubation continued at 37° C. for 96 hours. Media was then removed and the cells rinsed once with ice cold PBS. Forty μL of ice-cold MSD Buffer AT (10 mM HEPES, pH 7.9, 5 mM MgCl2, 0.25M sucrose, Benzonase (1:10000), 1% Triton X-100 supplemented with fresh 1× Protease Inhibitor cocktail and 1 mM 4-(2-Aminoethyl)benzenesulfonyl fluoride hydrochloride (AEBSF)) was added to each well and the plates placed on ice for 30 minutes. Ten μL of 5M NaCl was then added to each well and incubation on ice continued for another 15 minutes. The material in each well was suspended pipetting up and down and then transferred to a new 96 well plate. The emptied wells were rinsed with 150 uL ice-cold 20 mM Tris pH 7.5, 1 mM EDTA, 1 mM EGTA, supplemented with fresh 1× Protease Inhibitor cocktail and 1 mM AEBSF (“NO salt NO detergent buffer) and transferred to the respective wells in the new plate. Three hundred μL of NO Salt NO detergent buffer was then added to each well of lysates and the plates frozen at −80° C.
On the same day, an appropriate number of MSD standard bind 96-well plates were coated with 30 μL/well of total H3 capture antibody (Millipore, Cat # MAB3422) at 1 μg/mL concentration in PBS. The antibody solution was evenly distributed first by tapping gently on the sides of the plates and then by shaking the plates for a few minutes at 1000 rpm. Antibody coated plates were stored at 4° C. overnight.
The next day the lysates are thawed to RT. The antibody coated MSD plates are washed 3× with TBS-T (Tris-buffered saline (Fisher Scientific, Cat #BP2471-1)+0.2% Tween-20). One-hundred fifty μL of 5% Blocker A in TBS-T is added to each well. The wells are covered and shaken on a shaker at RT for one hour. The Blocker A step is repeated a second time. After removing the blocker, 25 μL of cell lysate is transferred into each antibody coated well. The plates are shaken for 2 hours at RT, the lysate removed and the plates again washed with Blocker A in TBS-T. Twenty-five μL of appropriate freshly prepared antibody mix (including both primary and secondary antibodies) is added to each well and the plates shaken for 1 hour at RT.
Both H3 antibodies were obtained from Cell Signalling (Cat #s 4499 and 9733). The goat anti-rabbit antibody was obtained from Meso-Scale Discovery (Cat #R32AB-1).
The antibody mix was then removed and the wells washed with Blocker A. One hundred-fifty μL of freshly prepared 1×MSD Read Buffer (Meso-Scale Discovery; Cat #R927C-2) was then added to each well and the plates read on a MSD Sector 2400 Plate Reader.
(§3) Data was analyzed using Assay Assistant (Constellation Pharmaceuticals In-house product) and Activity Base (IDBS Ltd, Surrey, UK) template. Data files were imported to Assay Assistant and assay conditions were specified. A unique Analysis ID was created and the data files exported to Activity Base. An analysis template was created on Activity Base to measure dose-dependent inhibition of H3K27me3 mark and cell viability respectively. Readout of DMSO wells were used to normalize the data. Resulting curves were fitted using Activity base software Model 205 (IDBS Ltd, Surrey, UK). The data was checked for quality, validated and integrated in excel format using SARview (IDBS Ltd, Surrey, UK).

The test system is the same in assay [4]. The assay can be described thus: H3K27me3 Alpha Hela Assay (AlphaLISA). It is filed as cell-based. The conditions noted are these: Homo sapiens, 72 hrs, read-out: H3K27me3_Alpha_HeLa (EC50). Here is the method: H3K27me3 Alpha Hela Assay (AlphaLISA). Ten different doses of each test compound (in a series of 3-fold dilutions) were plated in duplicate 384-well tissue culture treated plates (Catalog #781080; Greiner Bio One; Monroe, N.C.). Hela cells grown in culture were trypsinized and counted using a Countess® cell counter (Catalog # C10281; Life Technologies, Grand Island, N.Y.). Cell were diluted to 67,000 cells per mL in 10% DMEM (Catalog #10569-010 Life Technologies, Grand Island, N.Y.) and 15 μL (1,000 cells) were plated into each well using the Biotek MicroFlo™ Select Dispenser (BioTek Instruments, Inc. Vermont, USA),) of the 384-well plate. Plates were incubated at 37° C./5% CO2 for 72 hrs. One of the duplicate plates was processed for HeLa assay and the other for viability.
To the plate processed for AlphaLISA was added 5 μL per well Cell-Histone Lysis buffer (1×) (Catalog # AL009F1 Perkin Elmer; Waltham, Mass.) and the plate was incubated at RT for 30 minutes on a plate shaker with low speed (Model#4625-Q Thermo Scientific; Waltham, Mass.). Then, 10 μL per well Histone Extraction buffer (catalog # AL009F2; Perkin Elmer; Waltham, Mass.) was added and the plate further incubated at RT for 20 min on plate shaker with low speed. To each well was then added 10 μL per well of a 5× mix of anti-K27me3 acceptor beads plus Biotinylated anti-Histone H3 (C-ter) Antibody (diluted to 3 nM final) (Catalog #AL118 Perkin Elmer; Waltham, Mass.). Dilution of the acceptor beads and then anti-Histone H3 was with 1× Histone Detection buffer (Catalog # AL009F3 Perkin Elmer; Waltham, Mass.) which was produced diluted from the 10× stock provided. The plate was sealed with an aluminum plate sealer and incubated at 23° C. for 60 min. We then added 10 μL 5× solution of Streptavidin Donor beads (Catalog #6760002 Perkin Elmer; Waltham, Mass.) (20 μg/mL final in 1× Histone Detection Buffer), sealed the plate with Aluminum plate sealer and incubated at 23° C. for 30 min. The plates were then read using an EnVision-Alpha Reader (model #2104 Perkin Elmer; Waltham, Mass.).
as §3, with “Data from both assays was analyzed” for “Data was analyzed”
On the technique in general: In Alpha technology, singlet oxygen from a donor bead excites a nearby acceptor bead.

Sequence of EZH2 (Q15910 whole entry): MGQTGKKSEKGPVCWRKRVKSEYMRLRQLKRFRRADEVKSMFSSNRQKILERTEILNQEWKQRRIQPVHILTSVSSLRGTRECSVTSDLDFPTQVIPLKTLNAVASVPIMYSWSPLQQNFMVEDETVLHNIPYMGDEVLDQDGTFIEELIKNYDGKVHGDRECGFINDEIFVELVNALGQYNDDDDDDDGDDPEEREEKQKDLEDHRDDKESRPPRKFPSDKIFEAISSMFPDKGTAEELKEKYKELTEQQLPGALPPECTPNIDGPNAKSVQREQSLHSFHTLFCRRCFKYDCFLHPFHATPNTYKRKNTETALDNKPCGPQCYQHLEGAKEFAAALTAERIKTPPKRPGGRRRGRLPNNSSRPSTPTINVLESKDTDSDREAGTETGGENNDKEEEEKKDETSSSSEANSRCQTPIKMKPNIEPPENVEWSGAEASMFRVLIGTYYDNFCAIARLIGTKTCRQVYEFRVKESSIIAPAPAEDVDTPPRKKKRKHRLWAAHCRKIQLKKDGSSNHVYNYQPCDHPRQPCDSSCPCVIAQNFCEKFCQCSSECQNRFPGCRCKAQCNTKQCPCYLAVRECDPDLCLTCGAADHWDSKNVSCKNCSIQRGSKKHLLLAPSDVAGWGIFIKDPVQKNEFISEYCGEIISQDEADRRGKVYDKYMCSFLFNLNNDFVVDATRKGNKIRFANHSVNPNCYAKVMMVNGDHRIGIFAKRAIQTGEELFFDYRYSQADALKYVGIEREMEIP
Sequence of EZH2 (O75530 whole entry partner): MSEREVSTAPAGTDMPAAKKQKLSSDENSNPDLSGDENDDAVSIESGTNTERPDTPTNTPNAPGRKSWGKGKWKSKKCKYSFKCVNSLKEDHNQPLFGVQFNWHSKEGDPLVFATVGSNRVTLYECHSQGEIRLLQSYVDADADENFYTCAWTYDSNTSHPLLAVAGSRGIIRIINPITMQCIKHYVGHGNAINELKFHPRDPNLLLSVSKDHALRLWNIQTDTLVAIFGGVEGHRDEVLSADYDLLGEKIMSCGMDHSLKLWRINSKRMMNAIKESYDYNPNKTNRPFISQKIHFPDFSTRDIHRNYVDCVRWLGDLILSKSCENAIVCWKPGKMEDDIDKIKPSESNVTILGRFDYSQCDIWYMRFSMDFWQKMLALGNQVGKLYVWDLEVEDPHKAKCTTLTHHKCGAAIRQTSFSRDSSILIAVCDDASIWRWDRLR
Sequence of EZH2 (Q15022 whole entry partner): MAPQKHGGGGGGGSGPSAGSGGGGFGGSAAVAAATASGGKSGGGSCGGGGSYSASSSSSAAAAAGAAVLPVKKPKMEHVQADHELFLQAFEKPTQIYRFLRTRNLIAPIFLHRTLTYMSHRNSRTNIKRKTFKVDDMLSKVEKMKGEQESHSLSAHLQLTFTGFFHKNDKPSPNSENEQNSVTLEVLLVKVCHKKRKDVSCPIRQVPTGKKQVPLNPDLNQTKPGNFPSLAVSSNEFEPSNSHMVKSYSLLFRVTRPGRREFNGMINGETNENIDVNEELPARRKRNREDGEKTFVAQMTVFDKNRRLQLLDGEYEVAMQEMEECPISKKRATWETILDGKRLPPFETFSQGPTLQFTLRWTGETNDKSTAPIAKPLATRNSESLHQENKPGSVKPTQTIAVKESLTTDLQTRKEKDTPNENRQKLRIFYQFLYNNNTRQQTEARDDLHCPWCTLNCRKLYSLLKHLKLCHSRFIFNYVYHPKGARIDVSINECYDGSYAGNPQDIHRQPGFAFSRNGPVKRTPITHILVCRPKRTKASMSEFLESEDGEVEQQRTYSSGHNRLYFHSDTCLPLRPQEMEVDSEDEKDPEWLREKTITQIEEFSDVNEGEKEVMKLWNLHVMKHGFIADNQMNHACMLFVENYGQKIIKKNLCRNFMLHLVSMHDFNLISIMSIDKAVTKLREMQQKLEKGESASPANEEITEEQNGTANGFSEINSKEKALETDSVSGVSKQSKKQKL
Sequence of Y641N EZH2 (Q15910 whole entry Y641N): as the sequence (Q15910 whole entry) above, with Y641N counted along it
Sequence of Y641N EZH2 (O75530 whole entry partner): as the sequence (O75530 whole entry partner) above
Sequence of Y641N EZH2 (Q15022 whole entry partner): as the sequence (Q15022 whole entry partner) above

For `COc1cc(C)[nH]c(=O)c1CNC(=O)c1c(C)c(-c2c(C)noc2C)n2ncccc12` [Compound 114, 7-(3,5-dimethylisoxazol-4-yl)-N-((4-methoxy-6-methyl-2-oxo-1,2-dihydropyridin-3-yl)methyl)-6-methylpyrrolo[1,2-b]pyridazine-5-carboxamide], the IC50 in assay [1] and in assay [2] was less than 100 nM in each case. Besides, the EC50 in assay [3] (Homo sapiens, HeLa, 96 h) is less than 400 nM.

In the case of `CCN(C(C)c1c(C)c(C(=O)NCc2c(OC)cc(C)[nH]c2=O)c2cccnn12)S(C)(=O)=O` (single isomer, unassigned) [Compound 107, (R or S)-7-(1-(N-ethylmethylsulfonamido)ethyl)-N-((4-methoxy-6-methyl-2-oxo-1,2-dihydropyridin-3-yl)methyl)-6-methylpyrrolo[1,2-b]pyridazine-5-carboxamide], the IC50 was less than 100 nM in assay [1] and 100 to 1000 nM in assay [2]. Besides, the EC50 in assay [3] (96 hours) was in the range of 2000 to 10000 nM.

In the case of `COc1cc(C)[nH]c(=O)c1CNC(=O)c1c(C)c(C(C)C2CC2)n2ncccc12` (racemic) [Compound 102, (±)-7-(1-cyclopropylethyl)-N-((4-methoxy-6-methyl-2-oxo-1,2-dihydropyridin-3-yl)methyl)-6-methylpyrrolo[1,2-b]pyridazine-5-carboxamide], the IC50 in assay [1] and in assay [2] was less than 100 nM throughout. The EC50 in assay [3] (Homo sapiens, HeLa, 96 h) was 400 to 2000 nM.

As for `COc1cc(C)[nH]c(=O)c1CNC(=O)c1c(C)c(C(C)NS(C)(=O)=O)n2ncccc12` (racemic) [Compound 112, (±)-N-((4-methoxy-6-methyl-2-oxo-1,2-dihydropyridin-3-yl)methyl)-6-methyl-7-(1-(methylsulfonamido)ethyl)pyrrolo[1,2-b]pyridazine-5-carboxamide], the results for the IC50 in assay [1] and in assay [2] were less than 100 nM and 100 to 1000 nM, respectively. Besides, the EC50 in assay [3] (Homo sapiens, HeLa, 96 h) is 2000 to 10000 nM.

For the compound `COc1cc(C)[nH]c(=O)c1CNC(=O)c1c(C)c(C(C)c2ccccc2)n2ncccc12` (single isomer, unassigned) [Compound 106, (R or S)-N-((4-methoxy-6-methyl-2-oxo-1,2-dihydropyridin-3-yl)methyl)-6-methyl-7-(1-phenylethyl)pyrrolo[1,2-b]pyridazine-5-carboxamide], the EC50 in assay [3] (96 hours) is less than 400 nM.

In the case of `COc1cc(C)[nH]c(=O)c1CNC(=O)c1c(C)c(C(C)C2CCN(C(=O)C(F)F)CC2)n2ncccc12` (stereo not shown) [Compound 138, 7-(1-(1-(2,2-difluoroacetyl)piperidin-4-yl)ethyl)-N-((4-methoxy-6-methyl-2-oxo-1,2-dihydropyridin-3-yl)methyl)-6-methylpyrrolo[1,2-b]pyridazine-5-carboxamide], the IC50 in assay [1] is less than 100 nM; in assay [2] it was 1000 to 10000 nM. Moreover, in assay [4], the EC50 is less than 400 nM.

In the case of `COc1cc(C)[nH]c(=O)c1CNC(=O)c1c(C)c(C(C)C2CCN(CC(C)(F)F)CC2)n2ccncc12` (stereo not shown) [Compound 140, 6-(1-(1-(2,2-difluoropropyl)piperidin-4-yl)ethyl)-N-((4-methoxy-6-methyl-2-oxo-1,2-dihydropyridin-3-yl)methyl)-7-methylpyrrolo[1,2-a]pyrazine-8-carboxamide], the values for the IC50 in assay [1] and in assay [2] were less than 100 nM and 1000 to 10000 nM, respectively. Also, in assay [4], the EC50 is less than 400 nM.
